Measured values reported in US20050048020A1, “Novel topical delivery system for plant derived anti-irritants” (priority 2003, published 2005).

Experiments:
[1] = DPPH* radical antioxidant test of plant extracts; assay type: biochemical; conditions: DPPH* assay, reference; read-out: EC50 of Vitamin E
[2] = Photobleaching of lycopenes in mineral oil; assay type: physicochemical; conditions: 0.1% in Mineral Oil, visible light and oxygen, FIG. 1
From the text: FIG. 1A is a graph illustrating the effects of photobleaching of lycopenes dissolved in mineral oil, over time.
The principal plant actives under development are the hydrophobic plant actives derived from carrot extracts (carotenes) and tomato paste (lycopenes). Both actives are known anti-cancer agents and regulators of epithelial homeostasis. Their role in epidermopoeisis and skin care is still under investigation. For both materials, extracts have been prepared and enriched by sequential extraction with ethyl alcohol and organic solvents. These extracts are then dried to a powder form and solubilized in Mineral Oil. A clear necessity for the preparation of such formulations is to prevent the photo-bleaching that occurs in mineral oil solutions exposed to visible light and oxygen This may typically be accomplished by addition of mineral oil solutions of Vitamin E (0.1%). […] Similar results have been obtained with the addition of Vitamin E to prevent the photo-bleaching of carotenes derived from Carrot Extracts.

effect on photo-bleaching of lycopenes [2]: photo-protective effect
Substance: Tocopherol [Vitamin E]
EC50 [1]: 46 µM
